From patent publication US20260069604A1, “NOVEL EQUILIBRATIVE NUCLEOSIDE TRANSPORTER INHIBITORS AND METHODS OF MAKING AND USING SAME” (Duke University, priority 2022, published 2026) come the findings set out here.

Data set [1] concerns SNI-induced neuropathic pain. As to the kind of experiment: SNI-induced neuropathic pain measured by PWF. The format is in vivo. The note with it: i.t., 100 nmol; p<0.05; n=4 males per group.
A further data set deals with T1, hENT1 (Homo sapiens, UniProt Q99808).
T1 construct: expressed in transfected cells; host or cells: oocytes (X. laevis)
T1 sequence (Q99808 1-456): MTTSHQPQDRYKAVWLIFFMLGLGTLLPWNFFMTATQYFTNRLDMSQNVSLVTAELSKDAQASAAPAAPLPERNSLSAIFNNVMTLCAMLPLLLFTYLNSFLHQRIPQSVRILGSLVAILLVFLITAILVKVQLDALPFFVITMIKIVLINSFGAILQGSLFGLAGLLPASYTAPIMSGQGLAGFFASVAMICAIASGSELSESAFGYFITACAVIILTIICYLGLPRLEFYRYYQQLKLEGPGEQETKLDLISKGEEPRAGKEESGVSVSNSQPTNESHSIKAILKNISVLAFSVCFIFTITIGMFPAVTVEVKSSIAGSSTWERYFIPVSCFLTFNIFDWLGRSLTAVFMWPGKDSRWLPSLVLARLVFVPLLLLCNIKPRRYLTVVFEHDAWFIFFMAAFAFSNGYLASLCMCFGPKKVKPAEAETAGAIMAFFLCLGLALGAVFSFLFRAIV
As to the kind of experiment: 3H-adenosine uptake in oocytes expressing hENT1. The format is cell-based. The settings on record: initial experiment n=1, FIG. 19. On the procedure:
(§1) Initial experiment (n=1 replicates) showing JH-ENT-01 inhibits both hENT1 and hENT2 mediated uptake of ^3H-adenosine.
(§2) The subtype specificities for these compounds are currently unknown and pending further investigation with functional assays. Towards this end, established assays in oocytes permitted the measurement of nucleoside transport activity for multiple ENT subtypes (FIG. 18C) and the novel inhibitors were tested for their activities on different ENT subtypes (FIG. 19).

Data set [2] in a line: plasma, brain and spinal cord pharmacokinetics after subcutaneous dosing. Format: in vivo, Male CD-1 mice. The settings on record: for distribution into CNS tissue: brain and spinal cord, s.c. dosing, in equilibrium with plasma, no accumulation. The protocol:
FIG. 27A-D show plasma (FIG. 27A), brain (FIG. 27B), and spinal cord (FIG. 27C) pharmacokinetics (PK) of JH-ENT-01 and dilazep. […] Male CD-1 mice (n=3 per time-point) were dosed subcutaneously (inj. volume: 8 μL/g BW) with 30 mg/kg of JH-ENT-01 (free base) and 29 mg/kg (molar equivalent) of dilazep dihydrochloride. Both drugs were formulated in 5% DMSO, 20% PEG-400, 20% propylene glycol, and 55% saline. Blood and tissues were collected at 10 min, 0.5, 1.5, 4.5, 8, 12, and 24 h. Following collection, the animals were perfused with saline. Liquid chromatography-tandem-mass spectrometry (LC/MS/MS) was used to determine drug concentration in samples. Pharmacokinetic parameters were calculated by non-compartmental approach within Win-Nonlin software. […] The distribution of both drugs into CNS tissue is high and is in equilibrium with plasma drug concentration (i.e., no drug accumulation in CNS).

For another data set, the target named is T2, hENT2 (Homo sapiens, UniProt Q14542).
T2 construct: expressed in transfected cells; host or cells: oocytes (X. laevis)
T2 sequence (Q14542 1-456): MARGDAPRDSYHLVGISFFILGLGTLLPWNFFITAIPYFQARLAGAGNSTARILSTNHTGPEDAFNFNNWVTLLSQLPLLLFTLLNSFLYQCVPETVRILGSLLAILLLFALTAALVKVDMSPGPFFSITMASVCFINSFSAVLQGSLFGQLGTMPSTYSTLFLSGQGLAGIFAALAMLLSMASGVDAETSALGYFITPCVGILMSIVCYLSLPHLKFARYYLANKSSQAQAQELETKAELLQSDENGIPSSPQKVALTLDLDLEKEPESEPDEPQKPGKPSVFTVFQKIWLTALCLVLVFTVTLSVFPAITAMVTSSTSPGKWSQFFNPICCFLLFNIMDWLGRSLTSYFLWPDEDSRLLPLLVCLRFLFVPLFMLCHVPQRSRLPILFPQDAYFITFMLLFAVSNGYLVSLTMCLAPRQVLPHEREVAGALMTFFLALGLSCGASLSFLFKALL
As to the kind of experiment: 3H-adenosine uptake in oocytes expressing hENT2. The format is cell-based. The note with it: initial experiment n=1, FIG. 19. The protocol:
as §1, §2

For a further data set, the target named is T3, hENT1cryst (Homo sapiens, UniProt Q99808, DEL243-274/L168F/N288K/P175A).
T3 construct: GFP; FLAG; His10; made in house
T3 sequence (Q99808 with tags, fused parts or gaps L168F/P175A/DEL243-274/N288K): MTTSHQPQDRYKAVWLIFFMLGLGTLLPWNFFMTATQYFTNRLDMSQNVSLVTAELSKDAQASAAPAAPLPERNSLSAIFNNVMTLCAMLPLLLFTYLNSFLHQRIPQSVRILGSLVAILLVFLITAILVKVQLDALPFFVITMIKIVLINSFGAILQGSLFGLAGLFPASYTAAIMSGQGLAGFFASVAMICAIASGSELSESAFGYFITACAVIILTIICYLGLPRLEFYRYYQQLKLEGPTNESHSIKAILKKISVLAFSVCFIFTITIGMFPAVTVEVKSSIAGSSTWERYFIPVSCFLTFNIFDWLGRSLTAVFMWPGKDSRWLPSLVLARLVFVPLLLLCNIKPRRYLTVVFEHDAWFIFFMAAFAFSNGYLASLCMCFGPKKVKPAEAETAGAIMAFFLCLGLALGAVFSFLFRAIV
As to the kind of experiment: cold-competition SPA: displacement of 3H-NBMPR from detergent purified hENT1cryst. The format is binding. On the procedure: The binding of cold competitor (dilazep control or JH-ENT-01) to hENT1cryst (85 nM) was assessed by the displacement of ^3H-NBMPR (10 nM) from the transporter (n=6 technical replicates from two representative experiments shown, error bars represent S.E.M.) FIG. 18A-C show initial functional characterization of novel hENT1 inhibitors.
A scintillation proximity assay was developed to measure binding of ^3H-NBMPR to hENT1-GFP fusion expressed and detergent solubilized from transiently transfected HEK293T cells (see Methods for details). By successively heating the assay mixture at increasing temperatures and measuring binding signal with scintillation counting, Tm values were determined for engineered hENT1 constructs bearing point mutations or truncations of disordered loops. Point mutations were designed based on a consensus approach, which is described in the Methods section of this chapter. A total of 40 point mutations or disordered-loop truncations were screened with this ^3H-NBMPR SPA approach (FIG. 4A). Mutations L168F, P175A and N288K were identified to substantially increase Tm. […] Importantly, hENT1cryst mediates nucleoside transport to a level consistent with a previous report in proteoliposomes (FIG. 3A) and is also functionally active in when expressed in oocytes (FIG. 3B). […]
(In general: Displacement assays read how much labelled ligand stays bound in the presence of the test substance.)

Data set [3] has as its target T4, hENT1cryst mutants (M33I, F307A, F307Y) (Homo sapiens, UniProt Q99808, DEL244-275/F307A/L168F/N288K/P175A).
T4 construct: GFP; FLAG; His10; made in house
T4 sequence (Q99808 with tags, fused parts or gaps L168F/P175A/DEL244-275/N288K/F307A): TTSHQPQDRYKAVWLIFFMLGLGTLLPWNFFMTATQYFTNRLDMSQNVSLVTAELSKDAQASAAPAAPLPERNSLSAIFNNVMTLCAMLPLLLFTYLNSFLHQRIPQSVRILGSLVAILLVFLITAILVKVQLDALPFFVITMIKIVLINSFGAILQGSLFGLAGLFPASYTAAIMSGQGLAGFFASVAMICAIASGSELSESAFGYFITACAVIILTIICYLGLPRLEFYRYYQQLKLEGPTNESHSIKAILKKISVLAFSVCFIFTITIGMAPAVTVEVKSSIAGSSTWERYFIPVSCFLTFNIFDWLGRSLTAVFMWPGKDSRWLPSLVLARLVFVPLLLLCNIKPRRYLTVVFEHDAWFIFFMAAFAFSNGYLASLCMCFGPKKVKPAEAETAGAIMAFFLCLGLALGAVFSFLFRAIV
In words: cold competition displacement of 3H-NBMPR by dilazep, hENT1cryst mutants. The settings on record: F307A mutant vs hENT1cryst. The format is binding. An excerpt:
(§3) This is substantiated by the equilibrium binding data, as both Q158S and Q158N ablate 3H-NBMPR binding capacity (FIG. 13B). […] This finding is consistent with previous reports on inhibitor sensitivities to substitutions at position 33 of hENT1.

Data set [4] addresses T5, hENT1cryst mutants (M33I, F307A, F307Y) (Homo sapiens, UniProt Q99808, DEL244-275/L168F/M33I/N288K/P175A).
T5 construct: GFP; FLAG; His10; made in house
T5 sequence (Q99808 with tags, fused parts or gaps M33I/L168F/P175A/DEL244-275/N288K): T4 sequence (Q99808 with tags, fused parts or gaps L168F/P175A/DEL244-275/N288K/F307A) with M32I, A274F
The data set is described as above. The format is binding. The note with it: M33I mutant vs hENT1cryst.
Excerpt: as §3

In data set [5] the target is T6, hENT1cryst mutants (M33I, F307A, F307Y) (Homo sapiens, UniProt Q99808, DEL244-275/F307Y/L168F/N288K/P175A).
T6 construct: GFP; FLAG; His10; made in house
T6 sequence (Q99808 with tags, fused parts or gaps L168F/P175A/DEL244-275/N288K/F307Y): T4 sequence (Q99808 with tags, fused parts or gaps L168F/P175A/DEL244-275/N288K/F307A) with A274Y
The description is as above. The note with it: F307Y mutant vs hENT1cryst. Format: binding.
Excerpt: as §3

Setting [6] is: s.c. 30 mg/kg JH-ENT-01 (free base) vs 29 mg/kg dilazep dihydrochloride.

Changes are numbered by the printed parent chain. Entries after “also recorded” stand apart in the source; their conditions may differ.

`COc1cc(C(=O)OCCCN2CCCN(CCCOC(=O)c3cc(OC)c(OC)c(OCc4ccc([N+](=O)[O-])cc4)c3)CC2)cc(OC)c1OC` [JH-ENT-01]: the “effect on SNI-induced neuropathic pain (PWF)” value in data set [1] is recorded as “reversing SNI-induced neuropathic pain”. Besides, the “inhibition of hENT1 mediated uptake of 3H-adenosine” value at hENT1 is on record as “inhibits; also recorded: retains potent inhibition activity”. In data set [2], the “distribution into CNS tissue” value was “high”. Moreover, in data set [2] (setting [6]), the “half-life compared to dilazep” value is “longer half-life” and the “plasma AUC compared to dilazep” value was “higher plasma AUC”. Besides, the “inhibition of hENT2 mediated uptake of 3H-adenosine” value at hENT2 is recorded as “inhibits”. Also, the “increase in binding affinity to hENT1cryst” value on hENT1cryst (cold competitor vs dilazep control, hENT1cryst 85 nM, 3H-NBMPR 10 nM) is around 2 fold. Also, the binding to target entry on hENT1cryst (in words, compared to dilazep (FIG. 17)) is on record as “improved binding to target compared to dilazep”.
For `COc1cc(C(=O)OCCCN2CCCN(CCCOC(=O)c3cc(OC)c(OC)c(OC)c3)CC2)cc(OC)c1OC` [dilazep], the “increase in apparent Kd for dilazep” value in data set [3] was around 90 fold; in data set [4], around 3 fold. In addition, the “decrease in apparent Kd for dilazep” value in data set [5] is around 4 fold. The “distribution into CNS tissue” value in data set [2] is recorded as “high”.
